Experimental data reported in patent US4746349A, “Method and compositions for suppressing the nitrification of ammonium in plant growth medium” (American Cyanamid Company, priority 1986, dated 1988).
Several values for one entry are separate records, joined by “and”; a condition that tells them apart may be missing. Equal entries are not always repeated. Structures can show the parent of a compound that is named as a salt.

Key:
Nitrobacter spp. = assay: Nitrite nitrogen in ammonium amended soil incubated at 25° C.; details: soil 25° C., 200 ppm N
Protocol: Determination of nitrite nitrogen and nitrate nitrogen in soil prepared in Example 1 above, which is amended with 200 ppm of nitrogen as aqueous ammonium sulfate, […], is determined using the nitrite and nitrate analysis of the American Organization of Analytical Chemists (AOAC pp. 653-655).

Nitrabacter = assay: Nitrite in ammonium amended field soil incubated at 38° C.; details: soil 38° C.; for Nitrite, reported as nitrogen: 0.50 ppm, 200 ppm N
Protocol: (§1) Determination of Nitrification Inhibition of Soil amended with 200 ppm of nitrogen as ammonium sulfate and 0.5 ppm of Nitrapyrin or 0.5 ppm of Maduramicin, monoammonium salt.
(§2) Soil samples prepared as described in Example 1 above are incubated at 38° C. for 20 weeks. Samples are taken at intervals during the 20 week period, extracted with 2M KCl (10:1 v/w), and assayed for ammonium nitrite and nitrate by standard steam distillation methods.

[1] = test system: corn (Dekalb T2000, B73×LH 38); assay: Field evaluation: corn ear leaf tissue nitrogen, silt loam plots; format: in vivo; details: for Corn Leaf Tissue Analysis (total N): ear leaf at silking
Excerpt: (§3) Field Evaluation: Field evaluations are based on the N content of corn leaf tissue and grain yield utilizing two soil types. Replicate (4X) field plots are established at two different locations, one having (I) silt loam soil and one (II) with sandy loam soil. These soils had been previously cropped to non-fertilized corn to reduce the level of residual N. Maduramicin monoammonium salt is applied (0.25, 0.125, 0.07 ppm) with NH3 (84 or 168 kg N/ha) through a "downstream" by an injection system into silt loam plots. Nitrapyrin (0.25 ppm=0.56 kg a.i./ha), nitrogen checks, benzyl alcohol (1.16L/ha) (BA) and a O nitrogen check are included for comparison. Individual replicate plot sizes are 3.04M×22.8M (4, 76-cm corn rows×22.8M long) Anhydrous ammonia are injected on 76-cm centers.
(§4) Urea, treated or non-treated with Maduramicin monoammonium salt is broadcast on the surface of sandy loam plots. Plots are then planted with corn the day following treatment. Dekalb T2000 is planted 10 May on silt loam plots and Pioneer 3352 is planted 11 May in sandy loam plots.
(§5) Corn ear leaf tissues collected at silking on silt loam plots or 60 days post silking (on silt loam and sandy loam plots) are collected from each plot and assayed for total N (AOAC procedures). Grain yields are determined by harvesting the two center rows×15.2 m of each plot.

Nitrosomonos = assay: Nitrification of ammonium amended field soil incubated at 38° C. (ammonium recovery, nitrate); details: soil 38° C.; for Ammonium Recovery, reported as nitrogen / Nitrate, reported as nitrogen: 0.50 ppm, 200 ppm N
Protocol: as §1, §2

[2] = test system: corn (Dekalb T2000, B73×LH 38); assay: Field evaluation: corn ear leaf tissue nitrogen, silt loam plots; format: in vivo; details: inhibitor 0.11 kg/ha, ear leaf at silking
Urease = Urease activity of urea amended soil, 38° C., 24 hrs; format: biochemical
Protocol: Urease activity: Five grams (5 g) oven-dry soil is treated with 5 ml of aqueous urea solution (1000 ug/g soil), with or without the test compound, and incubated in 65 ml screw-capped glass bottles at 38° C. for 24 hrs. Three replicates of each treatment are established. Phenylphosphorodiamide (PPD) is used as a urease inhibitor for comparison with Maduramicin monoammonium salt. Urea remaining is determined after extracting the soil for 60 minutes (with shaking) with 50 ml of 2M KCl containing 0.5 ug/ml of phenylmercuric acetate and filtering the soil suspension. Urea in the extract is determined colorimetrically (Douglas & Bremner, 1970). The percentage inhibition is calculated from (A-B)/(C-B) X 100-% inhibition; where A=the amount of urea found after incubation with the compound, B=the amount of urea found in the non-treated soil, and C=the amount of urea added.

[3] = test system: corn (Dekalb T2000, B73×LH 38); assay: Field evaluation: yield of corn, silt loam location; format: in vivo
Excerpt: as §3, §4, §5

SMILES: CO[C@@H]1[C@@H](OC)[C@H](C)[C@@](O)(CC(=O)O)O[C@H]1[C@H](C)[C@H]1O[C@@]2(CC[C@@](C)([C@H]3CC[C@@](C)([C@@H]4O[C@@H]([C@H]5O[C@](C)(O)[C@H](C)C[C@@H]5C)C[C@@H]4O[C@@H]4C[C@H](OC)[C@@H](OC)[C@H](C)O4)O3)O2)C[C@H](O)[C@H]1C [Maduramicin monoammonium salt, Maduramicin]
- Concentration of nitrite nitrogen (Nitrobacter spp.; 0.10 ppm, week 0): 6 ppm
- Concentration of nitrite nitrogen (Nitrobacter spp.; 0.10 ppm, week 1): 17 ppm
- Concentration of nitrite nitrogen (Nitrobacter spp.; 0.10 ppm, week 2): 2 ppm
- Concentration of nitrite nitrogen (Nitrobacter spp.; 0.10 ppm, week 4): 3 ppm
- Concentration of nitrite nitrogen (Nitrobacter spp.; 0.10 ppm, week 7): 12 ppm
- Concentration of nitrite nitrogen (Nitrobacter spp.; 0.10 ppm, week 9): 49 ppm
- Concentration of nitrite nitrogen (Nitrobacter spp.; 0.10 ppm, week 12): 9 ppm
- Concentration of nitrite nitrogen (Nitrobacter spp.; 0.10 ppm, week 16): 14 ppm
- Concentration of nitrite nitrogen (Nitrobacter spp.; 0.10 ppm, week 20): 56 ppm
- Concentration of nitrite nitrogen (Nitrobacter spp.; 0.25 ppm, week 0): 7 ppm
- Concentration of nitrite nitrogen (Nitrobacter spp.; 0.25 ppm, week 1): 2 ppm
- Concentration of nitrite nitrogen (Nitrobacter spp.; 0.25 ppm, week 2): 7 ppm
- Concentration of nitrite nitrogen (Nitrobacter spp.; 0.25 ppm, week 4): 0 ppm
- Concentration of nitrite nitrogen (Nitrobacter spp.; 0.25 ppm, week 7): -5 ppm
- Concentration of nitrite nitrogen (Nitrobacter spp.; 0.25 ppm, week 9): 12 ppm
- Concentration of nitrite nitrogen (Nitrobacter spp.; 0.25 ppm, week 12): 0 ppm
- Concentration of nitrite nitrogen (Nitrobacter spp.; 0.25 ppm, week 16): -2 ppm
- Concentration of nitrite nitrogen (Nitrobacter spp.; 0.25 ppm, week 20): 33 ppm
- Concentration of nitrite nitrogen (Nitrobacter spp.; 0.50 ppm, week 0): 8 ppm
- Concentration of nitrite nitrogen (Nitrobacter spp.; 0.50 ppm, week 1): 10 ppm
- Concentration of nitrite nitrogen (Nitrobacter spp.; 0.50 ppm, week 2): 4 ppm
- Concentration of nitrite nitrogen (Nitrobacter spp.; 0.50 ppm, week 4): 4 ppm
- Concentration of nitrite nitrogen (Nitrobacter spp.; 0.50 ppm, week 7): -8 ppm
- Concentration of nitrite nitrogen (Nitrobacter spp.; 0.50 ppm, week 9): -4 ppm
- Concentration of nitrite nitrogen (Nitrobacter spp.; 0.50 ppm, week 12): 4 ppm
- Concentration of nitrite nitrogen (Nitrobacter spp.; 0.50 ppm, week 16): -13 ppm
- Concentration of nitrite nitrogen (Nitrobacter spp.; 0.50 ppm, week 20): 14 ppm
- Activity against Nitrabacter, in words (Nitrabacter; 0.5 ppm): no activity
- Nitrite, reported as nitrogen (Nitrabacter; week 0): 9 ppm
- Nitrite, reported as nitrogen (Nitrabacter; week 1): 8 ppm
- Nitrite, reported as nitrogen (Nitrabacter; week 2): 4 ppm
- Nitrite, reported as nitrogen (Nitrabacter; week 4): 3 ppm
- Nitrite, reported as nitrogen (Nitrabacter; week 7): -5 ppm
- Nitrite, reported as nitrogen (Nitrabacter; week 9): 9 ppm
- Nitrite, reported as nitrogen (Nitrabacter; week 12): 6 ppm
- Nitrite, reported as nitrogen (Nitrabacter; week 16): 19 ppm
- Nitrite, reported as nitrogen (Nitrabacter; week 20): 37 ppm
- Corn Leaf Tissue Analysis (total N) ([1]; inhibitor 0.28 kg/ha, NH3 84 kg N/ha): 256 10^2 ug/g
- Corn Leaf Tissue Analysis (total N) ([1]; inhibitor 0.28 kg/ha, NH3 168 kg N/ha): 275 10^2 ug/g
- Corn Leaf Tissue Analysis (total N) ([1]; inhibitor 0.56 kg/ha, NH3 84 kg N/ha): 258 10^2 ug/g
- Corn Leaf Tissue Analysis (total N) ([1]; inhibitor 0.56 kg/ha, NH3 168 kg N/ha): 281 10^2 ug/g
- More nitrogen in leaf tissue than control plots with similar nitrogen ([1]; silt loam plots): 15-25%
- Tissue N compared with nitrapyrin-treated plants, in words ([1]; three rates, silt loam plots): slightly higher than nitrapyrin-treated plants
- Activity against Nitrosomonos, in words (Nitrosomonos; 0.5 ppm): good activity
- Nitrification inhibition compared with nitrapyrin, in words (Nitrosomonos; 0.5 ppm, 20 weeks): slightly better than that obtained with nitrapyrin
- Ammonium Recovery, reported as nitrogen (Nitrosomonos; week 0): 193 ppm
- Nitrate, reported as nitrogen (Nitrosomonos; week 0): 18 ppm
- Ammonium Recovery, reported as nitrogen (Nitrosomonos; week 1): 178 ppm
- Nitrate, reported as nitrogen (Nitrosomonos; week 1): 20 ppm
- Ammonium Recovery, reported as nitrogen (Nitrosomonos; week 2): 193 ppm
- Nitrate, reported as nitrogen (Nitrosomonos; week 2): 17 ppm
- Ammonium Recovery, reported as nitrogen (Nitrosomonos; week 4): 199 ppm
- Nitrate, reported as nitrogen (Nitrosomonos; week 4): 9 ppm
- Ammonium Recovery, reported as nitrogen (Nitrosomonos; week 7): 208 ppm
- Nitrate, reported as nitrogen (Nitrosomonos; week 7): 15 ppm
- Ammonium Recovery, reported as nitrogen (Nitrosomonos; week 9): 168 ppm
- Nitrate, reported as nitrogen (Nitrosomonos; week 9): 52 ppm
- Ammonium Recovery, reported as nitrogen (Nitrosomonos; week 12): 154 ppm
- Nitrate, reported as nitrogen (Nitrosomonos; week 12): 76 ppm
- Ammonium Recovery, reported as nitrogen (Nitrosomonos; week 16): 129 ppm
- Nitrate, reported as nitrogen (Nitrosomonos; week 16): 112 ppm
- Ammonium Recovery, reported as nitrogen (Nitrosomonos; week 20): 95 ppm
- Nitrate, reported as nitrogen (Nitrosomonos; week 20): 111 ppm
- Corn Leaf Tissue Analysis (total N) ([2]; NH3 84 kg N/ha): 257 10^2 ug/g
- Corn Leaf Tissue Analysis (total N) ([2]; NH3 168 kg N/ha): 268 10^2 ug/g
- % INHIBITION (urease) (Urease; (A-B)/(C-B) X 100, urea 1000 ug/g soil): 16%
- AVERAGE amount of urea remaining (Urease; average of 3 replicates, urea 1000 ug/g soil): 483 µg/g
- AMOUNT REMAINING (urea) (Urease; single replicates, urea 1000 ug/g soil): 492 µg/g and 477 µg/g
- AVERAGE YIELD 4-REPLICATES ([3]; N 84 kg/ha, chemical 0.11 kg/ha): 136.6 HECTOLITERS/HECTARE
- AVERAGE YIELD 4-REPLICATES ([3]; N 84 kg/ha, chemical 0.28 kg/ha): 129.6 HECTOLITERS/HECTARE
- AVERAGE YIELD 4-REPLICATES ([3]; N 84 kg/ha, chemical 0.56 kg/ha): 131.4 HECTOLITERS/HECTARE
- AVERAGE YIELD 4-REPLICATES ([3]; N 168 kg/ha, chemical 0.11 kg/ha): 154.0 HECTOLITERS/HECTARE
- AVERAGE YIELD 4-REPLICATES ([3]; N 168 kg/ha, chemical 0.28 kg/ha): 146.2 HECTOLITERS/HECTARE
- AVERAGE YIELD 4-REPLICATES ([3]; N 168 kg/ha, chemical 0.56 kg/ha): 147.9 HECTOLITERS/HECTARE
